In PubChem BioAssay (NCI) one finds TGI and GI50 data, which are given here for 14 compounds.

Common to all, as to experiment: NCI-60 cell line screen, 48 h
Test [1] deals with ACHN renal.
Test [2] deals with HOP-62 NSCLC.
Test [3] deals with MCF7 breast.
Test [4] has as its system MDA-MB-435.
The test system of test [5] is NCI-H226 lung.
Test [6] has as its system NCI-H460 lung.
Test [7] deals with NCI/ADR-RES ovarian.
Test [8] deals with RXF 393 renal.
Test [9] has as its system SK-OV-3 ovarian.
The subject of test [10] is SK-MEL-2 melanoma.

Several values for one entry are separate records, joined by “and”; a condition that tells them apart may be missing. Equal entries are not always repeated.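 Cultured in 96-well plates, cells were exposed to test compound for 48 hours across five concentrations. GI50 is the concentration that inhibits growth by half. TGI: concentration producing complete growth inhibition.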 A value given as a limit tells only on which side of the number the result lay.

On to `O=C(CN=C(CN(c1ccccc1)c1ccccc1)Oc1c(Cl)cc(Cl)cc1Cl)n1cnc2ccccc21`, for which the TGI in test [1], in [2], in test [3], in [4], in test [5] and in [6] was > 100 µM throughout. Further, the TGI is > 100 µM in test [7], 25.6 µM in test [8] and > 100 µM in [9].
For `OC(c1ccco1)C(F)(F)c1nc2ccccc2o1` (stereo unspecified), the TGI in test [1], in test [2], in test [3], in [4], in test [5] and in test [6] was > 100 µM each time. Besides, the TGI in [7], in [8], in test [10] and in test [9] was > 100 µM throughout.
Take `C/C(=N\Nc1nc2ccccc2s1)c1cccnn1`: the TGI in [1] is 17 µM; in test [2], 14.5 µM; in test [3], > 100 µM; in test [4], > 100 µM; in [5] it was 59.3 µM; in [6], 15.1 µM. Also, the TGI worked out at 8.69 µM in test [7], 84.5 µM in [8], 36.8 µM in test [10] and 52.3 µM in [9].
For `CC(C)Cc1c(C#N)c(C#N)c(N)n1Cc1ccccc1`, the TGI in test [1], in [2], in [3], in test [4], in [5] and in [7] was > 100 µM throughout. Moreover, the TGI in test [8], in [10] and in test [9] was > 100 µM in each case.
On to `CNc1ccc2c(c1)Cc1ccccc1-2`, for which the TGI in test [1] is > 100 µM; in test [2] it was > 100 µM; in test [3] it was > 100 µM; in test [4], 69.3 µM; in test [5], > 100 µM; in [6] it was > 100 µM. Further, the TGI in test [7], in test [8] and in test [10] was > 100 µM each time.
Take `CC/C=C\C/C=C\C/C=C\CCCCCCCC(=O)OC(COC(=O)CCCCCCCCCCCCCCCCC)COC1OC(CO)C(O)C(O)C1O` (stereo unspecified): the TGI in test [1], in test [2], in test [3], in test [4], in test [5] and in test [6] was > 25 µM in each case. In addition, the TGI in [7], in [8], in test [10] and in test [9] was > 25 µM each time.
Regarding `COCC(=O)OC1CCn2c1nc1c2C(=O)C(C)=C(NC(C)=O)C1=O` (stereo unspecified), the TGI is 19.5 µM in test [1]; 41.1 µM in test [2]; 3.53 µM and 3.75 µM in test [3]; 3.69 µM and 3.42 µM in [4]; 23.5 µM in test [5]; 38.2 µM in [6]. Further, the TGI in test [7] was 22.3 µM; in [8] it was 5.9 µM and 7.55 µM; in [10] it was 13.5 µM; in test [9], 34.3 µM. The GI50 is 2.17 µM in test [4], 9.33 µM in test [5], 6.89 µM in [7] and 5.34 µM in [10].
For `COc1ccc(CCCCl)c(C2=NCCc3ccccc32)c1`, the TGI in test [1], in test [2], in test [3], in test [4], in test [5] and in [6] was > 100 µM in each case. Moreover, the TGI in test [7], in test [8], in test [10] and in test [9] was > 100 µM throughout.
Turning to `COc1ccc(/C=N/Nc2nc3ccccc3c(=O)n2-c2ccccc2)c(OCc2ccccc2)c1`, the TGI in [1], in test [2], in [3], in [4], in test [5] and in test [6] was > 100 µM each time. For the same compound, the TGI in [7], in test [8], in [10] and in [9] was > 100 µM in each case.
For the compound `CC1OC(n2cc(F)c(=O)[nH]c2=O)C(O[Si](C)(C)C(C)(C)C)C1O[Si](C)(C)C(C)(C)C` (stereo unspecified), the TGI in test [1] came out at 26.9 µM; in test [2] it was 43.7 µM; in [3], 35.7 µM; in test [4] it was 34.5 µM; in test [5], 31.1 µM; in [7] it was 27.7 µM. Further, the TGI in test [8] turned out to be 29.5 µM; in [10], 35.5 µM; in test [9] it was 32 µM.
As for `CN(C)c1nc(=NCc2ccccn2)ss1`, the TGI in test [1], in test [2], in test [3], in test [4], in test [5] and in [6] was > 10 µM each time. Also, the TGI in test [7], in test [8] and in test [9] was > 10 µM each time.
In the case of `N/C(CSCCSC/C(N)=N/O)=N\O`, the TGI in test [1], in [2], in test [3], in test [4], in test [5] and in [6] was > 100 µM in each case. The TGI in test [7], in test [8] and in [9] was > 100 µM each time.
With `COC1OC2COC(C)(C)OC2C2OC(C)(C)OC12` (stereo unspecified), the TGI in test [1] was > 100 µM; in [2], 61.1 µM; in test [3] it was > 100 µM; in test [4], > 100 µM; in test [5] it was 76.2 µM; in [7], > 100 µM. For the same compound, the TGI in test [8], in [10] and in [9] was > 100 µM throughout.
On to `O=[N+]([O-])c1ccc2nc3c(nc2c1)-c1c2ccccc2cc2cccc-3c12`, for which the TGI is 77.2 µM in test [2]; > 100 µM in [3]; > 83.9 µM in [4]; > 100 µM in test [5]; > 100 µM in test [6]; 28.3 µM in test [7]. In addition, the TGI in [8] amounted to 63.6 µM; in test [10], 90 µM; in [9], 60.9 µM.
